Results published in patent US20210330611A1, “THERAPY FOR NEUROLOGICAL DISEASES/DISORDERS” (priority 2020, published 2021).
Where a name gives a salt, the structure may show the parent alone. Read-outs that look alike come from different tables or passages of the source.

How the values were obtained:
[1] = tested on: LPS-induced microglia activation; assay: Image-based assay of LPS-induced microglia activation (HTS and dose response); type: cell-based, rat; details: for inhibition at 10 µM: Rattus norvegicus, Microglia, read-out: LPS % inhibition
primary rat microglia [2] = assay: Cell toxicity (dead cells, size <150 μm2) in coated fibrin (cFib) assay; details: primary microglia HTS;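 note: share of dead cells sized under 150 µm2 at 10 µM in fibrin-stimulated microglia HTS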
[3] = tested on: fibrin- and LPS-induced microglia activation; assay: cells; type: cell-based, rat
primary rat microglia [4] = tested on: primary rat microglia
[5] = tested on: fibrin-induced microglia activation; assay: Image-based assay of fibrin-induced microglia activation (HTS and dose response); type: cell-based, rat; details: primary microglia HTS, fibrin stimulation; for inhibition at 10 µM: Rattus norvegicus, Microglia, read-out: Fibrin % inhibition
[6] = primary microglia HTS, LPS stimulation, compounds at 10 μM
[7] = fibrin assay, dead cells (size <150 μm2), compounds at 10 μM
[8] = classification by fibrin and LPS inhibition, HTS at 10 μM
[9] = fibrin assay, dead cells (size <150 μm2)
[10] = quadrant by fibrin and LPS inhibition, HTS at 10 μM
[11] = fibrin stimulation, cell size <150 μm2 as marker of toxicity
[12] = classification by fibrin and LPS inhibition in HTS
[13] = cell size >800 μm2 as marker of activation

Structure (SMILES) | inhibition at 10 µM [1, 6] | Fibrin % cell toxicity (primary rat microglia [2]; [7]) | Quadrant (FIG. 5b) [3, 8] | LPS % cell toxicity (primary rat microglia [4]; rat) | inhibition at 10 µM ([5]; compounds at 10 μM) | Fibrin % cell toxicity (primary rat microglia [2]; [9]) | Quadrant (FIG. 5b) [3, 10] | LPS % inhibition [1] | Fibrin % cell toxicity (primary rat microglia [2]; [11]) | Quadrant (FIG. 5b) [3, 12] | LPS % cell toxicity (primary rat microglia [4]) | Fibrin % inhibition [5, 13] | inhibition at 10 µM ([1]; 48 h) | inhibition at 10 µM [5, 13]
Nc1nc(N)nc(NC2CC2)n1 [Cyromazine] | 9% | 1% | Q4 | 0% | -9% |  |  |  |  |  |  |  |  | 
CC(=O)Nc1ccc(OC(=O)c2ccccc2O)cc1 [Acetaminosalol] | 20% |  |  | 1% | -15% | 1% | Q4 |  |  |  |  |  |  | 
CCN(CC)C(C)CN1c2ccccc2Sc2ccccc21 (centres unmarked) [Ethopropazine] | 30% | 1% | Q4 | 0% | 31% |  |  |  |  |  |  |  |  | 
CC(=O)Nc1ccc(C(=O)O)cc1 [4-acetamidobenzoic acid] | 42% |  |  | 0% | 32% | 1% | Q4 |  |  |  |  |  |  | 
C1CCc2nnnn2CC1 [Pentetrazole, Pentylenetetrazol] |  |  |  |  |  |  |  | 18% | 1% | Q4 | 1% | −12% |  | 
CC(CN(C)C)CN1c2ccccc2Sc2ccccc21 (centres unmarked) [Alimemazine] | 39% |  |  | 0% | 32% | 1% | Q4 |  |  |  |  |  |  | 
N[C@@H](COP(=O)(O)O)C(=O)O [Phosphonoserine] |  |  |  | 0% |  |  |  |  | 1% | Q4 |  |  | 10% | -6%
Cc1oc(=O)oc1CN1CCN(c2cc3c(cc2F)c(=O)c(C(=O)O)c2n3C(C)S2)CC1 (centres unmarked) [Prulifloxacin] |  |  |  | 0% |  |  |  |  | 1% | Q4 |  |  | 16% | 7%
CC(=O)Nc1c(I)cc(I)c(C(=O)O)c1I [Acetrizoic acid] | 9% |  |  | 0% | 14% | 1% | Q4 |  |  |  |  |  |  | 
C/C(=C(\CCOP(=O)(O)O)SC(=O)c1ccccc1)N(C=O)Cc1cnc(C)nc1N [Benfotiamine] | 18% |  |  | 0% | -47% | 0% | Q4 |  |  |  |  |  |  | 
Cc1cc(-c2ccc(/N=N/c3ccc4c(S(=O)(=O)O)cc(S(=O)(=O)O)c(N)c4c3O)c(C)c2)ccc1/N=N/c1ccc2c(S(=O)(=O)O)cc(S(=O)(=O)O)c(N)c2c1O [Evans Blue] | 7% | 0% | Q4 | 0% | -37% |  |  |  |  |  |  |  |  | 
CCN(CC)C(=O)N1CCN(C)CC1 [Diethylcarbamazine] | 11% | 0% | Q4 | 0% | -26% |  |  |  |  |  |  |  |  | 
CN1CCN(c2cc3c(cc2F)c(=O)c(C(=O)O)cn3-c2ccc(F)cc2)CC1 [Difloxacin Hydrochloride] | 33% | 1% | Q4 | 1% | 25% |  |  |  |  |  |  |  |  | 
